From ChEMBL document CHEMBL1201862, “PubChem BioAssay data set” (2004)
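Assay format: 96-well plates, 48-hour exposure. Abbreviation: GI50, concentration required for 50% inhibition of growth.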 The source made the active and inactive calls. No stated cut-off is given here; in the data, active = GI50 up to about 1.1 µM and inactive = higher.

Assays:
Assay in all cases: NCI tumour cell line growth inhibition, 48 h
SF-268 = tested on: SF-268
SW-620 = tested on: SW-620
SK-MEL-28 = tested on: SK-MEL-28
HOP-62 = tested on: HOP-62
HCC 2998 = tested on: HCC 2998
KM-20L2 = tested on: KM-20L2
HOP-92 = tested on: HOP-92
KM12 = tested on: KM12
SF-539 = tested on: SF-539
UACC-62 = tested on: UACC-62
EKVX = tested on: EKVX
T47D = tested on: T47D
NCI-H226 = tested on: NCI-H226
PC-3 = tested on: PC-3
HT-29 = tested on: HT-29
SNB-75 = tested on: SNB-75
MDA-MB-231 = tested on: MDA-MB-231
NCI/ADR-RES = tested on: NCI/ADR-RES
LOX IMVI = tested on: LOX IMVI
OVCAR-8 = tested on: OVCAR-8

Measured: GI50

COc1cc2c3c(c1OC)-c1cc4c(cc1CC3(C#N)N(C(=O)c1ccccc1)CC2)OCO4 (centres undefined)
inactive: SF-268 31.6 µM | SW-620 87.9 µM | SK-MEL-28 59.7 µM | HOP-62 42.1 µM | HCC 2998 > 100 µM | KM-20L2 > 80.9 µM | HOP-92 8.39 µM | KM12 > 75.5 µM | SF-539 17.7 µM | UACC-62 16.4 µM | EKVX 45.8 µM | T47D > 100 µM | NCI-H226 37.8 µM | PC-3 > 76.4 µM | HT-29 > 100 µM | SNB-75 9.12 µM | MDA-MB-231 67.6 µM | NCI/ADR-RES > 60 µM | LOX IMVI > 56.8 µM | OVCAR-8 20.7 µM

Cc1ccc([N+](=O)[O-])c2c(NCCCN(C)C)ccnc12
inactive: SF-268 > 95.9 µM | SW-620 30.7 µM | SK-MEL-28 > 100 µM | HOP-62 > 90.4 µM | HCC 2998 20.3 µM | KM-20L2 26.4 µM | HOP-92 56.9 µM | KM12 69.8 µM | SF-539 27.3 µM | EKVX > 49 µM | T47D > 100 µM | NCI-H226 > 100 µM | PC-3 33.6 µM | HT-29 31 µM | SNB-75 33.7 µM | MDA-MB-231 > 100 µM | NCI/ADR-RES 66.2 µM | LOX IMVI 44.2 µM | OVCAR-8 98.4 µM

CCCCNC1CCCCC[C@H]1O (some centres undefined)
inactive: SF-268 > 100 µM | SW-620 > 100 µM | SK-MEL-28 > 100 µM | HOP-62 > 100 µM | HCC 2998 > 100 µM | KM-20L2 > 100 µM | HOP-92 > 100 µM | KM12 > 100 µM | SF-539 > 100 µM | UACC-62 > 100 µM | EKVX > 100 µM | NCI-H226 > 100 µM | HT-29 > 100 µM | SNB-75 > 100 µM | LOX IMVI > 100 µM | OVCAR-8 > 100 µM

O=C(NCc1ccccc1)c1cc2ccc(O)c(O)c2cn1
inactive: SF-268 15.1 µM | SW-620 21.4 µM | SK-MEL-28 16.4 µM | HOP-62 21.3 µM | HCC 2998 > 100 µM | KM-20L2 > 100 µM | HOP-92 19.1 µM | KM12 33.2 µM | SF-539 18.2 µM | UACC-62 18.5 µM | EKVX > 100 µM | NCI-H226 40 µM | HT-29 44.1 µM | SNB-75 17.8 µM | LOX IMVI 3.82 µM | OVCAR-8 11.2 µM

C/C(=C\C(C)COCc1ccccc1)[C@H](COCc1ccccc1)OCc1ccccc1 (some centres undefined)
inactive: SF-268 76.2 µM | SW-620 > 100 µM | SK-MEL-28 > 100 µM | HOP-62 > 100 µM | HCC 2998 > 100 µM | KM-20L2 > 100 µM | HOP-92 10.4 µM | KM12 > 100 µM | SF-539 > 100 µM | UACC-62 > 100 µM | EKVX > 100 µM | NCI-H226 > 100 µM | HT-29 > 100 µM | SNB-75 80.2 µM | LOX IMVI 24.2 µM | OVCAR-8 > 100 µM

CCCCCCCCCCCC[N+]12CC[N+](C)(CC1)CC2
inactive: SF-268 18.7 µM | SW-620 44.3 µM | SK-MEL-28 > 100 µM | HOP-62 29.2 µM | HCC 2998 8.09 µM | KM-20L2 14.9 µM | HOP-92 14.9 µM | KM12 7.31 µM | SF-539 39.4 µM | UACC-62 22.6 µM | EKVX > 100 µM | NCI-H226 18.3 µM | HT-29 16.4 µM | SNB-75 13 µM | LOX IMVI 19.4 µM | OVCAR-8 > 100 µM

COc1ccccc1C1C(C(=O)Nc2ccccc2)=C(C)NC(C)=C1C(=O)Nc1ccccc1
inactive: SF-268 > 100 µM | SW-620 93.8 µM | SK-MEL-28 > 100 µM | HOP-62 83.8 µM | HCC 2998 > 100 µM | KM-20L2 94.8 µM | HOP-92 44.2 µM | KM12 28.2 µM | SF-539 36.1 µM | UACC-62 40.6 µM | EKVX 91.4 µM | NCI-H226 53 µM | HT-29 83.4 µM | SNB-75 > 100 µM | LOX IMVI 83.2 µM | OVCAR-8 > 100 µM
